The results in this text go back to paper PMC5847526, “Inhibition of neuronal FLT3 receptor tyrosine kinase alleviates peripheral neuropathic pain in mice” (Nature Communications, 2018).

The target of assay [1] is PRLR-JAK1 (Homo sapiens, UniProt P16471). In words: cell-based. Set-up: PathHunter eXpress functional assay (DiscoverX tkMAX), inhibition of reference ligand response. To be noted: read-out: % Inhibition of reference binding (Table 3).
The target of assay [2] is T1, TrkA-P75 (Homo sapiens, UniProt P04629).
T1 construct: gene NTRK1
In words: cell-based. Set-up: PathHunter eXpress functional assay (DiscoverX tkMAX), inhibition of reference ligand response. To be noted: read-out: % Inhibition of reference binding (Table 3).

Assay [3] addresses T2, fms-like tyrosine kinase 3 receptor (FLT3) (Homo sapiens, UniProt P36888).
T2 construct: SNAP-FLT3 (Lumi4-Tb labelled) in HEK293 cells; endogenous FLT3 in RS4-11 cells
Nature of the assay: trFRET inhibition of Red-FL binding to SNAP-FLT3 on HEK293 cells; FL-induced FLT3 phosphorylation in RS4-11 cells (IC50 […]). It counts as cell-based.

In assay [4] the target is ErbB2-ErbB3 (Homo sapiens, UniProt P04626+P21860). In words: cell-based. On the set-up: PathHunter eXpress functional assay (DiscoverX tkMAX), inhibition of reference ligand response. To be noted: read-out: % Inhibition of reference binding (Table 3).
The target in assay [5] is EphA5 (Homo sapiens, UniProt P54756). In words: cell-based. On the set-up: PathHunter eXpress functional assay (DiscoverX tkMAX), inhibition of reference ligand response. To be noted: read-out: % Inhibition of reference binding (Table 3).
Assay [6] addresses EphA7 (Homo sapiens, UniProt Q15375). In words: cell-based. On the set-up: PathHunter eXpress functional assay (DiscoverX tkMAX), inhibition of reference ligand response. Particulars: read-out: % Inhibition of reference binding (Table 3).
Assay [7] concerns the target T3, INSRb (Homo sapiens, UniProt P06213).
T3 construct: gene INSR; isoform b
In words: cell-based. On the set-up: PathHunter eXpress functional assay (DiscoverX tkMAX), inhibition of reference ligand response. To be noted: read-out: % Inhibition of reference binding (Table 3).

Assay [8] concerns the target ErbB4 (Homo sapiens, UniProt Q15303). Nature of the assay: cell-based. Set-up: PathHunter eXpress functional assay (DiscoverX tkMAX), inhibition of reference ligand response. To be noted: read-out: % Inhibition of reference binding (Table 3).
The target of assay [9] is KDR (Homo sapiens, UniProt P35968). Nature of the assay: cell-based. On the set-up: PathHunter eXpress functional assay (DiscoverX tkMAX), inhibition of reference ligand response. To be noted: read-out: % Inhibition of reference binding (Table 3).
Assay [10] addresses c-KIT (Homo sapiens, UniProt P10721). Nature of the assay: cell-based. On the set-up: PathHunter eXpress functional assay (DiscoverX tkMAX), inhibition of reference ligand response. To be noted: read-out: % Inhibition of reference binding (Table 3).
Assay [11] has as its target EphB2 (Homo sapiens, UniProt P29323). In words: cell-based. To be noted: read-out: % Inhibition of reference binding (Table 3). Set-up: PathHunter eXpress functional assay (DiscoverX tkMAX), inhibition of reference ligand response.
The target in assay [12] is FLT4 (Homo sapiens, UniProt P35916). In words: cell-based. Set-up: PathHunter eXpress functional assay (DiscoverX tkMAX), inhibition of reference ligand response. To be noted: read-out: % Inhibition of reference binding (Table 3).
The target of assay [13] is EphB4 (Homo sapiens, UniProt P54760). Nature of the assay: cell-based. To be noted: read-out: % Inhibition of reference binding (Table 3). Set-up: PathHunter eXpress functional assay (DiscoverX tkMAX), inhibition of reference ligand response.
For assay [14], the target named is DDR1 (Homo sapiens, UniProt Q08345). Nature of the assay: cell-based. Set-up: PathHunter eXpress functional assay (DiscoverX tkMAX), inhibition of reference ligand response. To be noted: read-out: % Inhibition of reference binding (Table 3).

One may read the inhibition as the change of the read-out against control, counted positive when it falls. By IC50 is commonly meant the concentration at which inhibition is half-maximal. Read a high IC50 as weaker potency in that assay.

Chain of FLT4 (P35916 whole entry): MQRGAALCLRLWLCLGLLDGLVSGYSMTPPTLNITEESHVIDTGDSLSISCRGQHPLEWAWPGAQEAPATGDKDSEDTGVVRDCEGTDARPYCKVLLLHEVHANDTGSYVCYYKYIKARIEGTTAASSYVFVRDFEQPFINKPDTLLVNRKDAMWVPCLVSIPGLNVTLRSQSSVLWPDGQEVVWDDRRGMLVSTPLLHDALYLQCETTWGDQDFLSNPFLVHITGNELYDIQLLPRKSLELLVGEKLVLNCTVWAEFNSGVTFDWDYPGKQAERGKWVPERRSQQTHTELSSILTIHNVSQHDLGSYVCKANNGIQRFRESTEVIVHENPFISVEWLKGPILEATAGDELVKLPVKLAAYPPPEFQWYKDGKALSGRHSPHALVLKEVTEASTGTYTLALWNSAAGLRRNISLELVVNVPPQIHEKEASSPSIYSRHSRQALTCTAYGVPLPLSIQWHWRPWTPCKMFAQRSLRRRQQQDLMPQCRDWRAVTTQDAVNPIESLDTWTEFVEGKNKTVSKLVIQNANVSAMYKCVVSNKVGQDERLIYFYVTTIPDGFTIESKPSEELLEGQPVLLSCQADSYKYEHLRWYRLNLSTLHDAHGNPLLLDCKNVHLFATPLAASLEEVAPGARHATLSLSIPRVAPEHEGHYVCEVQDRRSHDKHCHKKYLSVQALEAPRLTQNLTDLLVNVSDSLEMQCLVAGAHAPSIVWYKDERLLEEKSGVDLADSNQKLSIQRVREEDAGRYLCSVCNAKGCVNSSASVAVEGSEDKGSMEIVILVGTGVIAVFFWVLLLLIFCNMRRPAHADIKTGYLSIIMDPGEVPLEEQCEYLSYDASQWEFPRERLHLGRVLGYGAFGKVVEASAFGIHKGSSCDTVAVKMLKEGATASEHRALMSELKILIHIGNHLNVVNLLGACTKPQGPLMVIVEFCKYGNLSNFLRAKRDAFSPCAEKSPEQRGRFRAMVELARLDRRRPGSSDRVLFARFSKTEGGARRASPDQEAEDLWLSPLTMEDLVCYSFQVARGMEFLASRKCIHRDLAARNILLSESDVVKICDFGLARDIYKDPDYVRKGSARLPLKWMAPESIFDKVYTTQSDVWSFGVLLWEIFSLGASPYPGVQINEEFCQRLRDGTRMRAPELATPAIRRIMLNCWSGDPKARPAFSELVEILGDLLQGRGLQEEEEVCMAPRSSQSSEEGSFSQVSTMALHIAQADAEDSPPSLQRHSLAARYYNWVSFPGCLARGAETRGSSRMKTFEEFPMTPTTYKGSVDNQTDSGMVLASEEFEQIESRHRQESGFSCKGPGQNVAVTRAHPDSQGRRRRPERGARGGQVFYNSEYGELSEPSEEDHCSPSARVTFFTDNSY
Chain of PRLR-JAK1 (P16471 whole entry): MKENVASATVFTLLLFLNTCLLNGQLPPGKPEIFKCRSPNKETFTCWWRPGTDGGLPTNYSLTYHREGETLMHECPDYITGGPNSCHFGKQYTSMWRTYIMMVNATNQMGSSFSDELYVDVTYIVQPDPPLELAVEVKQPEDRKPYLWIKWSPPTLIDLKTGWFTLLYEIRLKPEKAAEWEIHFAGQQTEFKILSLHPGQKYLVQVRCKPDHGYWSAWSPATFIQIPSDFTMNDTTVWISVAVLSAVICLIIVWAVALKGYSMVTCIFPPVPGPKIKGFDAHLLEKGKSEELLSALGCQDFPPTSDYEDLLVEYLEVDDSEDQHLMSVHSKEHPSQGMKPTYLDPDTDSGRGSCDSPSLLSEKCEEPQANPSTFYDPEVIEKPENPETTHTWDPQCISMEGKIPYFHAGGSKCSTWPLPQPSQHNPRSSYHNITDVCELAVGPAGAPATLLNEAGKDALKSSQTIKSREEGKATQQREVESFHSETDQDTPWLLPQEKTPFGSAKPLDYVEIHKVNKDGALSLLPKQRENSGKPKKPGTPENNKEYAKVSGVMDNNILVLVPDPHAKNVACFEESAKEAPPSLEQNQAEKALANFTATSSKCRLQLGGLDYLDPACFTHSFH
Chain of PRLR-JAK1 (P23458 whole entry partner): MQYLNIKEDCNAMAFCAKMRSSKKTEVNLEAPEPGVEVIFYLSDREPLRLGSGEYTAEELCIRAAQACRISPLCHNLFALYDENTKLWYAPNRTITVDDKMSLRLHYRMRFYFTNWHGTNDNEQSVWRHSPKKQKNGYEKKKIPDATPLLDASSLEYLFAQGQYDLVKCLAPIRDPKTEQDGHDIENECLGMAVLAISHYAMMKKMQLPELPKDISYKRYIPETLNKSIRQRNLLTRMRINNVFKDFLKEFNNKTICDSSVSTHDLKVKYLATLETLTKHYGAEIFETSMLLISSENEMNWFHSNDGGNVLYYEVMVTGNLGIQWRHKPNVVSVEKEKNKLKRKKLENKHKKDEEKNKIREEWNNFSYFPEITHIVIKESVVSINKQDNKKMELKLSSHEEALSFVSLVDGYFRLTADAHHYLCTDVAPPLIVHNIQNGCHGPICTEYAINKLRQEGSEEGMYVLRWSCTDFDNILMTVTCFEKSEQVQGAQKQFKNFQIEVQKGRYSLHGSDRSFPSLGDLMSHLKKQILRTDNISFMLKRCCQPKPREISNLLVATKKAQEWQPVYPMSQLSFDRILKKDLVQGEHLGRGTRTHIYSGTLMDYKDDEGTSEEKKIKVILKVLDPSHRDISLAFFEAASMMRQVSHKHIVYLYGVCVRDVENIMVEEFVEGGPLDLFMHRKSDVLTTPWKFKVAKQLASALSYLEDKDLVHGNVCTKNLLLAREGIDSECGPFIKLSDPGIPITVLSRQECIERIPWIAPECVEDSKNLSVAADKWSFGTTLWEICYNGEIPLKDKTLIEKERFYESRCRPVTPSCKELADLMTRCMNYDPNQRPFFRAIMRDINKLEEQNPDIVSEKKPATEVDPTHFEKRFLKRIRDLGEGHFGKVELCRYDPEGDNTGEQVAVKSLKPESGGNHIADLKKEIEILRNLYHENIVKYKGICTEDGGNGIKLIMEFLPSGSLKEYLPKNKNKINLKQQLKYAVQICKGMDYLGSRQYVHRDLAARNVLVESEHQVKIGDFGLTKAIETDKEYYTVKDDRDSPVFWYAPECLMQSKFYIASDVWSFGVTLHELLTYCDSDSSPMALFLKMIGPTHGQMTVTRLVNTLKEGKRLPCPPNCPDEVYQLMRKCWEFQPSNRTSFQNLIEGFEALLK
Chain of EphB2 (P29323 whole entry): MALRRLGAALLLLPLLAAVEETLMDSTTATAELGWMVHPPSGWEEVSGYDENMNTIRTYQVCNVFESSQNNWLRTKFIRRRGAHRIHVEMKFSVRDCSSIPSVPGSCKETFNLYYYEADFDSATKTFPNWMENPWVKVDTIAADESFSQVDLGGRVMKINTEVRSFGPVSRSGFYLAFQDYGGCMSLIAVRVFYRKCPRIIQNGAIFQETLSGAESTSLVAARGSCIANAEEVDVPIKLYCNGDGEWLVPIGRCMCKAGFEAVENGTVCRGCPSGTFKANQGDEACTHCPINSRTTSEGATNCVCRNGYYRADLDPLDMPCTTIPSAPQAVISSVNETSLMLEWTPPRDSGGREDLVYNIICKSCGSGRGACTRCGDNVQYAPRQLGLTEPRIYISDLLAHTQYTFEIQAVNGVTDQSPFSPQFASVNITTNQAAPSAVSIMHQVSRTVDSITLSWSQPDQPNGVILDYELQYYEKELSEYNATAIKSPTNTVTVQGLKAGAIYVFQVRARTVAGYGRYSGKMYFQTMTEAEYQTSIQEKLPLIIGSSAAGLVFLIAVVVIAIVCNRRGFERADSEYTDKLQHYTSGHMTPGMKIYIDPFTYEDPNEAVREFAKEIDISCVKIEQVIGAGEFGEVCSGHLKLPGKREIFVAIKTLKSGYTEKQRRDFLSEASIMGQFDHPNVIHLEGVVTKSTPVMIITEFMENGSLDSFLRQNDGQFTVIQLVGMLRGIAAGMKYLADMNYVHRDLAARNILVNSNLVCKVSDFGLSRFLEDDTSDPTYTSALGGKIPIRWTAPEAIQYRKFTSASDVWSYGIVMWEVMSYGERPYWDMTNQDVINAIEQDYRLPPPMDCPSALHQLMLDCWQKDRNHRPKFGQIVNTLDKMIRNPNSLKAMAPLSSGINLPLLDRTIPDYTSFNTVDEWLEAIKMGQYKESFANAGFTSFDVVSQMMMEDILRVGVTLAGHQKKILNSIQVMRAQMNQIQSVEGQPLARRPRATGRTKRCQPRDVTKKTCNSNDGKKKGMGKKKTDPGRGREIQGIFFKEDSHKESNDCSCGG
Chain of DDR1 (Q08345 whole entry): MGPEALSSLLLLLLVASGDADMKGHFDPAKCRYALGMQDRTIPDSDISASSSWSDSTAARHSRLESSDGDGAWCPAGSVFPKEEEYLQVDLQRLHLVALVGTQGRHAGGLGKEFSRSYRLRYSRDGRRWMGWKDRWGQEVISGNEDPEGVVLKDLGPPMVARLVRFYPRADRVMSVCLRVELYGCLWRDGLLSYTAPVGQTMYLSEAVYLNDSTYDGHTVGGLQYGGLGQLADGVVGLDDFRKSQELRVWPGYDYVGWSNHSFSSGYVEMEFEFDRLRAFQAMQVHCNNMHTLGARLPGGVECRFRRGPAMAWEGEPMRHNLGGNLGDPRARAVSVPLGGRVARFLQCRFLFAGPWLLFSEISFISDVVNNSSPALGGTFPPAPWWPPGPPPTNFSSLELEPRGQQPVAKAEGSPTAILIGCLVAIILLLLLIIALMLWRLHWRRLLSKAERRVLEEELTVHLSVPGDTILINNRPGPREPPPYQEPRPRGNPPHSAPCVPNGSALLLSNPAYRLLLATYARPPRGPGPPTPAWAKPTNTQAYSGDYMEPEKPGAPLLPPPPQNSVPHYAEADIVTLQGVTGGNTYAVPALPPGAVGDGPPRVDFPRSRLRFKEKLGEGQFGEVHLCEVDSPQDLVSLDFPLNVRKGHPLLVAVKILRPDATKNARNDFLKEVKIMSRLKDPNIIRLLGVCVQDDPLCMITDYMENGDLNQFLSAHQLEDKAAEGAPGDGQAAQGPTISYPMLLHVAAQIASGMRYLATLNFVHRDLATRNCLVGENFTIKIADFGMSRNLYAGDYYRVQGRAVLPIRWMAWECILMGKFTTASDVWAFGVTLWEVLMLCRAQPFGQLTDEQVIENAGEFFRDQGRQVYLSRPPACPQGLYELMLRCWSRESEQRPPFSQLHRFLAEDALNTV

For the molecule `O=C(Nc1cc(Cl)ccc1O)c1cccc(S(=O)(=O)N2CCCCC2)c1` [compound 66, BDT001], the inhibition at 10 µM in assay [1] stood at 6.1%; in [2], 13.7%; in [4], 13.6%; in assay [5], 5%; in assay [6], 4.3%; in assay [7], 10%. The inhibition at 10 µM in [8] was -0.1%; in assay [9], -3.1%; in assay [10], 7.8%; in assay [11], 1.4%; in assay [12] it was 16.8%; in assay [13], 22.7%. For the same molecule, in assay [14], the inhibition at 10 µM was -0.7%. The IC50 in assay [3] amounted to 11 µM.
